According to patent US20230033285A1, “Protease Inhibitors for Treatment of Coronavirus Infections” (The Scripps Research Institute, priority 2021, published 2023):

System: SARS-CoV-2
Experiment: microbe, parasite or virus in culture
Assay type: cell-based
Conditions: Severe acute respiratory syndrome coronavirus 2, HeLa-ACE2, 24 h, read-out: EC50, μM (Hela)

First: CC(C)(C)[C@H](NC(=O)C(F)(F)F)C(=O)N1C[C@H]2[C@@H]([C@H]1C(=O)N[C@H](C#N)C[C@@H]1CCCNC1=O)C2(C)C [Compound 63, (1R,2S,5S)-N-((S)-1-cyano-2-((S)-2-oxopiperidin-3-yl)ethyl)-3-((S)-3,3-dimethyl-2-(2,2,2-trifluoroacetamido)butanoyl)-6,6-dimethyl-3-azabicyclo[3.1.0]hexane-2-carboxamide]
Second: CC1(C)[C@@H]2[C@@H](C(=O)N[C@H](C=O)C[C@@H]3CCNC3=O)N(C(=O)COc3ccc(OC(F)(F)F)cc3)C[C@@H]21 [Compound 36, (1R,2S,5S)-6,6-dimethyl-N-((S)-1-oxo-3-((S)-2-oxopyrrolidin-3-yl)propan-2-yl)-3-(2-(4-(trifluoromethoxy)phenoxy)acetyl)-3-azabicyclo[3.1.0]hexane-2-carboxamide]
The EC50 of the first is lower: less than 0.05 µM for the first, 0.2 to 0.5 µM for the second. The first is the more potent here.

Compound `CC(C)C[C@H](NC(=O)OCc1cccc(Cl)c1)C(=O)N[C@@H](C[C@@H]1CCNC1=O)C(=O)COC(=O)Cc1ccccc1` [Compound 121, (S)-3-((S)-2-((((3-chlorobenzyl)oxy)carbonyl)amino)-4-methylpentanamido)-2-oxo-4-((S)-2-oxopyrrolidin-3-yl)butyl 2-phenylacetate] has an EC50 greater than 1 µM.

Same assay, conditions: Severe acute respiratory syndrome coronavirus 2; HeLa-ACE2 cells infected with SARS-CoV-2, 24 h, immunofluorescence of infected cells; read-out: EC50, μM (Hela)

First: CC(C)C[C@H](NC(=O)OCc1cccc(Cl)c1)C(=O)N[C@@H](C[C@@H]1CCNC1=O)C(=O)COC(=O)C(C)C [Compound 120, (S)-3-((S)-2-((((3-chlorobenzyl)oxy)carbonyl)amino)-4-methylpentanamido)-2-oxo-4-((S)-2-oxopyrrolidin-3-yl)butyl isobutyrate]
Second: COc1cccc(C)c1NC(=O)C(=O)N[C@@H](CC(C)C)C(=O)N[C@@H](C[C@@H]1CCNC1=O)C(=O)CO [Compound 16, N^1-((S)-1-(((S)-4-hydroxy-3-oxo-1-((S)-2-oxopyrrolidin-3-yl)butan-2-yl)amino)-4-methyl-1-oxopentan-2-yl)-N^2-(2-methoxy-6-methylphenyl)oxalamide]
The EC50 of the first is higher: greater than 1 µM for the first, 0.2 to 0.5 µM for the second.

First: O=C(Nc1ccccc1F)C(=O)N[C@@H](CC1CCCCC1)C(=O)N[C@H](C[C@@H]1CCCNC1=O)C(=O)CO [Compound 25, N^1-((S)-3-cyclohexyl-1-(((R)-4-hydroxy-3-oxo-1-((S)-2-oxopiperidin-3-yl)butan-2-yl)amino)-1-oxopropan-2-yl)-N^2-(2-fluorophenyl)oxalamide]
Second: Cc1ccccc1NC(=O)C(=O)N[C@@H](CC1CCCCC1)C(=O)N[C@@H](C[C@@H]1CCNC1=O)C(=O)CO [Compound 8, N^1-((S)-3-cyclohexyl-1-(((S)-4-hydroxy-3-oxo-1-((S)-2-oxopyrrolidin-3-yl)butan-2-yl)amino)-1-oxopropan-2-yl)-N^2-(o-tolyl)oxalamide]
The EC50 of the first is lower: 0.05 to 0.2 µM for the first, 0.2 to 0.5 µM for the second.

`Cc1ccccc1NC(=O)C(=O)N[C@@H](CC(C)C)C(=O)N[C@@H](C[C@@H]1CCCNC1=O)C(=O)CO` [Compound 27, N^1-((S)-1-(((S)-4-hydroxy-3-oxo-1-((S)-2-oxopiperidin-3-yl)butan-2-yl)amino)-4-methyl-1-oxopentan-2-yl)-N^2-(o-tolyl)oxalamide] and `CC(C)C[C@H](NC(=O)C(=O)Nc1ccccc1F)C(=O)N[C@@H](C[C@@H]1CCCNC1=O)C(=O)CO` [Compound 21, N^1-(2-fluorophenyl)-N^2-((S)-1-(((S)-4-hydroxy-3-oxo-1-((S)-2-oxopiperidin-3-yl)butan-2-yl)amino)-4-methyl-1-oxopentan-2-yl)oxalamide] fall in the same range of EC50: 0.05 to 0.2 µM for the first, 0.05 to 0.2 µM for the second.

First: CC(C)CCC(=O)N1CC2(CC2)C[C@H]1C(=O)N[C@H](C#N)C[C@@H]1CCNC1=O [Compound 117, (S)-N-((S)-1-cyano-2-((S)-2-oxopyrrolidin-3-yl)ethyl)-5-(4-methylpentanoyl)-5-azaspiro[2.4]heptane-6-carboxamide]
Second: O=C(Nc1ccccc1F)C(=O)N1CC2(CC2)C[C@H]1C(=O)N[C@@H](C[C@@H]1CCNC1=O)C(=O)CO [Compound 93, (S)-5-(2-((2-fluorophenyl)amino)-2-oxoacetyl)-N-((S)-4-hydroxy-3-oxo-1-((S)-2-oxopyrrolidin-3-yl)butan-2-yl)-5-azaspiro[2.4]heptane-6-carboxamide]
The EC50 of the first is higher: greater than 1 µM for the first, 0.2 to 0.5 µM for the second. The second is the more potent here.

Going from `CC(C)(C)C[C@H](NC(=O)C(=O)Nc1ccccc1C(F)(F)F)C(=O)N[C@H](C[C@@H]1CCCNC1=O)C(=O)CO` [Compound 133, N^1-((S)-1-(((R)-4-hydroxy-3-oxo-1-((S)-2-oxopiperidin-3-yl)butan-2-yl)amino)-4,4-dimethyl-1-oxopentan-2-yl)-N^2-(2-(trifluoromethyl)phenyl)oxalamide] to `Cc1ccccc1NC(=O)C(=O)N[C@@H](CC1CC1)C(=O)N[C@@H](C[C@@H]1CCCNC1=O)C(=O)CO` [Compound 88, N^1-((S)-3-cyclopropyl-1-(((S)-4-hydroxy-3-oxo-1-((S)-2-oxopiperidin-3-yl)butan-2-yl)amino)-1-oxopropan-2-yl)-N^2-(o-tolyl)oxalamide], the EC50 falls from greater than 1 µM to less than 0.05 µM.

First: Cc1ccccc1NC(=O)C(=O)N1C[C@@H]2CCC[C@@H]2[C@H]1C(=O)N[C@H](C[C@@H]1CCCNC1=O)C(=O)CO [Compound 92, (1S,3aR,6aS)-N-((R)-4-hydroxy-3-oxo-1-((S)-2-oxopiperidin-3-yl)butan-2-yl)-2-(2-oxo-2-(o-tolylamino)acetyl)octahydrocyclopenta [c]pyrrole-1-carboxamide]
Second: Cc1ccccc1NC(=O)C(=O)N1C[C@@H]2CCC[C@@H]2[C@H]1C(=O)N[C@@H](C[C@@H]1CCCNC1=O)C(=O)CO [Compound 91, (1S,3aR,6aS)-N-((S)-4-hydroxy-3-oxo-1-((S)-2-oxopiperidin-3-yl)butan-2-yl)-2-(2-oxo-2-(o-tolylamino)acetyl)octahydrocyclopenta [c]pyrrole-1-carboxamide]
The EC50 of the first is higher: greater than 1 µM for the first, 0.05 to 0.2 µM for the second. The second is the more potent here.

First: CCCCCCCCCCCCCCC(=O)OCC(=O)[C@H](C[C@@H]1CCNC1=O)NC(=O)[C@H](CC(C)C)NC(=O)c1cc2c(OC)cccc2[nH]1 [Compound 137, (S)-3-((S)-2-(4-methoxy-1H-indole-2-carboxamido)-4-methylpentanamido)-2-oxo-4-((S)-2-oxopyrrolidin-3-yl)butyl pentadecanoate]
Second: COc1cccc2[nH]c(C(=O)N[C@@H](CC(C)C)C(=O)N[C@H](C=O)C[C@@H]3CCNC3=O)cc12 [Compound 35, 4-methoxy-N-((S)-4-methyl-1-oxo-1-(((S)-1-oxo-3-((S)-2-oxopyrrolidin-3-yl)propan-2-yl)amino)pentan-2-yl)-1H-indole-2-carboxamide]
The EC50 of the first is lower: 0.2 to 0.5 µM for the first, greater than 1 µM for the second.

First: CC(C)C[C@H](NC(=O)c1cc(-c2ccccn2)on1)C(=O)N[C@H](C=O)C[C@@H]1CCNC1=O [Compound 128, N-((S)-4-methyl-1-oxo-1-(((S)-1-oxo-3-((S)-2-oxopyrrolidin-3-yl)propan-2-yl)amino)pentan-2-yl)-5-(pyridin-2-yl)isoxazole-3-carboxamide]
Second: CC(C)C[C@H](NC(=O)c1cc(-c2ccccn2)on1)C(=O)N[C@H](C=O)C[C@@H]1CCCNC1=O [Compound 127, N-((S)-4-methyl-1-oxo-1-(((S)-1-oxo-3-((S)-2-oxopiperidin-3-yl)propan-2-yl)amino)pentan-2-yl)-5-(pyridin-2-yl)isoxazole-3-carboxamide]
The EC50 of the first is higher: greater than 1 µM for the first, 0.5 to 1 µM for the second. The second is the more potent here.

First: CC1(C)[C@@H]2[C@@H](C(=O)N[C@H](C=O)C[C@@H]3CCCNC3=O)N(C(=O)C(=O)NC3CCCCC3)C[C@@H]21 [Compound 48, (1R,2S,5S)-3-(2-(cyclohexylamino)-2-oxoacetyl)-6,6-dimethyl-N-((S)-1-oxo-3-((S)-2-oxopiperidin-3-yl)propan-2-yl)-3-azabicyclo[3.1.0]hexane-2-carboxamide]
Second: CC1(C)[C@@H]2[C@@H](C(=O)N[C@H](C#N)C[C@@H]3CCCNC3=O)N(C(=O)c3ccnc(C(F)(F)F)c3)C[C@@H]21 [Compound 130, (1R,2S,5S)-N-((S)-1-cyano-2-((S)-2-oxopiperidin-3-yl)ethyl)-6,6-dimethyl-3-(2-(trifluoromethyl)isonicotinoyl)-3-azabicyclo[3.1.0]hexane-2-carboxamide]
The EC50 of the first is lower: 0.5 to 1 µM for the first, greater than 1 µM for the second.

`CC1(C[C@H](NC(=O)C(=O)NC(C)(C)C)C(=O)N[C@@H](C[C@@H]2CCCNC2=O)C(=O)CO)CCC1` [Compound 113, N^1-(tert-butyl)-N^2-((S)-1-(((S)-4-hydroxy-3-oxo-1-((S)-2-oxopiperidin-3-yl)butan-2-yl)amino)-3-(1-methylcyclobutyl)-1-oxopropan-2-yl)oxalamide] and `CC1(C[C@H](NC(=O)C(=O)NC23CC(F)(C2)C3)C(=O)N[C@@H](C[C@@H]2CCNC2=O)C(=O)CO)CCC1` [Compound 97, N^1-(3-fluorobicyclo[1.1.1]pentan-1-yl)-N^2-((S)-1-(((S)-4-hydroxy-3-oxo-1-((S)-2-oxopyrrolidin-3-yl)butan-2-yl)amino)-3-(1-methylcyclobutyl)-1-oxopropan-2-yl)oxalamide] fall in the same range of EC50: 0.05 to 0.2 µM for the first, 0.05 to 0.2 µM for the second.

First: CC(C)C[C@H](NC(=O)C(=O)Nc1ccccc1)C(=O)N[C@H](C=O)C[C@@H]1CCNC1=O [Compound 37, N^1-((S)-4-methyl-1-oxo-1-(((S)-1-oxo-3-((S)-2-oxopyrrolidin-3-yl)propan-2-yl)amino)pentan-2-yl)-N^2-phenyloxalamide]
Second: Cc1cccc(C)c1NC(=O)C(=O)N[C@@H](CC(C)C)C(=O)N[C@@H](C[C@@H]1CCNC1=O)C(=O)COC(=O)C(=O)c1ccccc1 [Compound 11, (S)-3-((S)-2-(2-((2,6-dimethylphenyl)amino)-2-oxoacetamido)-4-methylpentanamido)-2-oxo-4-((S)-2-oxopyrrolidin-3-yl)butyl 2-oxo-2-phenylacetate]
The EC50 of the first is higher: greater than 1 µM for the first, 0.05 to 0.2 µM for the second. The second is the more potent here.

`CC(C)C[C@H](NC(=O)C(=O)NC12CCC(F)(CC1)CC2)C(=O)N[C@@H](C[C@@H]1CCCNC1=O)C(=O)CO` [Compound 135, N^1-(4-fluorobicyclo[2.2.2]octan-1-yl)-N^2-((S)-1-(((S)-4-hydroxy-3-oxo-1-((S)-2-oxopiperidin-3-yl)butan-2-yl)amino)-4-methyl-1-oxopentan-2-yl)oxalamide] and `CC(C)C[C@H](NC(=O)C(=O)NCC(F)(F)F)C(=O)N[C@@H](C[C@@H]1CCNC1=O)C(=O)CO` [Compound 26] cannot be ordered by EC50: greater than 1 µM for the first, greater than 1 µM for the second.
